Marks after values point to notes of the source that are not given here.
Columns and labels:
[1] = target: T1, rat TRPV1 heterologously expressed in Chinese hamster ovary (CHO) cells (Rattus norvegicus, UniProt O35433); assay type: cell-based
[2] = target: T1, rat TRPV1 heterologously expressed in Chinese hamster ovary (CHO) cells; assay type: binding

T1 sequence (O35433 whole entry): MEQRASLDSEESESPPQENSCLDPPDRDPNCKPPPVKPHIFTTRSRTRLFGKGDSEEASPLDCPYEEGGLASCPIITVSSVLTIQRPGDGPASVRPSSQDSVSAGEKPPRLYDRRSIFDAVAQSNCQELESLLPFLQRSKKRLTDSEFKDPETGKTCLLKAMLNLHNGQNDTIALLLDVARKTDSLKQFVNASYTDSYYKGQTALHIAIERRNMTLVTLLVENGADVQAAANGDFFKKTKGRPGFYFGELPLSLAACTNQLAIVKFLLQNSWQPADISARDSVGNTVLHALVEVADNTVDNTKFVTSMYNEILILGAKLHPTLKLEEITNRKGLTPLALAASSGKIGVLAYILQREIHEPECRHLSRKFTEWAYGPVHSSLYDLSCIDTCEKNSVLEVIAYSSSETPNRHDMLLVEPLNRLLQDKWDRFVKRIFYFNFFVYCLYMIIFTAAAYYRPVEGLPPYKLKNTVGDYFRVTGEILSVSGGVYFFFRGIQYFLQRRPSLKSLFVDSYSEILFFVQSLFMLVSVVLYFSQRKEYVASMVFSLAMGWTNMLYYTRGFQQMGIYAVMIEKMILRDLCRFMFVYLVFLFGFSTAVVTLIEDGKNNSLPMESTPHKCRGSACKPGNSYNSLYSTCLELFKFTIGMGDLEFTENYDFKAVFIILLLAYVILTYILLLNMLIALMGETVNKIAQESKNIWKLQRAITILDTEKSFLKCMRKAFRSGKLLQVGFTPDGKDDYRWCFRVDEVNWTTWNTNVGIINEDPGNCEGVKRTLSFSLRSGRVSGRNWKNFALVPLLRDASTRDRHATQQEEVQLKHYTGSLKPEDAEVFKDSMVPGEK

Compound | enhancement in binding affinity compared to non-methylated parent [2] | fractional calcium uptake compared with that induced by 300 nM capsaicin [1] | other results
COc1cc(C(C)C(=O)NCc2ccc(C(C)(C)C)cc2)ccc1O (stereo not shown) [8a] | 2 fold |  | enhancement in agonism compared to non-methylated parent [1]: 3 fold
CC(C(=O)NCc1ccc(C(C)(C)C)cc1)c1ccc(O)c(F)c1 (stereo not shown) [8b] | ca. 4.5 fold |  | 
CC(C(=O)NCc1ccc(C(C)(C)C)cc1)c1ccc(O)c(Cl)c1 (stereo not shown) [8c] | ~4 fold | (77%) ^a | 
CC(C)(C)c1ccc(CNC(=O)Cc2ccc(OCCN)c(F)c2)cc1 [10b] |  | (63%) ^a | 
CC(C)(C)c1ccc(CNC(=O)Cc2ccc(OCCN)c(Cl)c2)cc1 [10c] |  | (36%) ^a | 
CC(C(=O)NCc1ccc(C(C)(C)C)cc1)c1ccc(OCCN)c(F)c1 (stereo not shown) [14b] |  | (91%) ^a | 
CC(C(=O)NCc1ccc(C(C)(C)C)cc1)c1ccc(OCCN)c(Cl)c1 (stereo not shown) [14c] |  | (75%) ^a | 
CCCCCCCCCNC(=O)C(C)c1ccc(O)c(OC)c1 (stereo not shown) [compound 19] | 1.5–2 fold |  | enhancement in agonism compared to non-methylated parent [1]: 1.5–2 fold
COc1cc(C(C)C(=O)NCCCc2ccc(C)c(C)c2)ccc1O (stereo not shown) [compound 20] | 1.5–2 fold |  | enhancement in agonism compared to non-methylated parent [1]: 1.5–2 fold
COc1cc(C(C)C(=O)NCCCc2ccc(C)c(C)c2)ccc1OCCN (stereo not shown) [compound 22] |  |  | increase in receptor activity compared to DA-5018 [2]: ca. 2 fold
COc1cc(C(C)NC(=S)NCc2ccc(C(C)(C)C)cc2)ccc1O (stereo not shown) [compound 32] |  |  | reduction (loss) in binding affinity compared to non-methylated parent [2]: 3 fold
COc1cc(C(C)NC(=S)NCc2ccc(C(C)(C)C)cc2)ccc1OCCN (stereo not shown) [compound 36] |  |  | reduction (loss) in binding affinity compared to non-methylated parent [2]: 17 fold

Reference: article PMC3799874 (Bioorganic & medicinal chemistry letters, 2012)
